The data set can be described thus: Radiochemical purity over time at room temperature (radio-HPLC). The class given is physicochemical. As for the experimental part: The labeling efficiency was analyzed by instant thin layer chromatography (iTLC) and was typically >98%. For iTLC analysis, 1 μL of diluted labeling solution was applied to a strip of iTLC-SA chromatography paper (Agilent P/N A120B12, 114×2.5 mm) and developed in 0.1M citrate buffer (8 cm solvent migration) to assess free ^177Lu (Rf>0.5) and [^177Lu]-6555 (Rf˜0). The iTLC strips were analyzed using an Eckert & Ziegler AR-2000 Radio-TLC Imaging Scanner. The radiochemical purity was analyzed by high performance chromatography (HPLC) and was typically >90%. Briefly, the product was analyzed using a Phenomenex Luna 3.0 μm C18(2), 100 Å, 150 mm×4.6 mm column. Eluent A: 50 mM ammonium acetate in water, eluent B: acetonitrile. Gradient: 2% B from 0-5 min; 2% to 26% B from 5-20 min; 26% to 98% B from 20-25 min; 98% to 2% B from 25-26 min; 2% B from 26-30 min. Flow rate: 1.0 mL/min, Radio-HPLC detector: NaI (Eckert & Zeigler FC-1000), UV: 215 nm. The radiochemical purity remained >90% for three days at room temperature.
The above depicted radiopharmaceutical [^177Lu]-6952 can be prepared as described in Example 20 using the radiochemical precursor 6952 (Example 21 above). The labeling efficiency was analyzed by instant thin layer chromatography (iTLC) and was typically >98%. […] The iTLC strips were analyzed using an Eckert & Ziegler AR-2000 Radio-TLC Imaging Scanner. The radiochemical purity was analyzed by high performance chromatography (HPLC) and was typically >90%. Briefly, the product was analyzed using a Phenomenex Luna 3.0 μm C18(2), 100A, 150 mm×4.6 mm column. […]
The labeling efficiency was analyzed by instant thin layer chromatography (iTLC) and was typically >95%. […] The iTLC strips were analyzed using an Eckert & Ziegler AR-2000 Radio-TLC Imaging Scanner. The radiochemical purity was analyzed by high performance chromatography (HPLC) and was typically >95%. Briefly, the product was analyzed using a Phenomenex Luna 3.0 μm C18(2), 100A, 150 mm×4.6 mm column. […]
The labeling efficiency was analyzed by instant thin layer chromatography (iTLC) and was typically >95%. […]

[1] abbreviates: for three days at room temperature, formulation with N-acetyl methionine.

Structures are written as SMILES.

`C[C@@H](NC(=O)c1ccc(CNC(=O)CN2CCN3CCN4CCN(CC2)CC(=O)O[CH2][Ga]([CH2]COC(=O)C3)[CH2]COC(=O)C4)cc1)C(=O)N1CCC[C@H]1B(O)O` [[^68Ga]-6555] registered a radiochemical purity remained (for 4 hours at room temperature) above 95%.

In the case of `C[C@@H](NC(=O)c1ccc(CNC(=O)CN2CCN3CCN4CCN(CC2)CC(=O)O[CH2][Lu]([CH2]COC(=O)C3)[CH2]COC(=O)C4)cc1)C(=O)N1CCC[C@H]1B(O)O` [[^177Lu]-6555], the radiochemical purity remained under setting [1] is on record as above 90%.

`C[C@@H](NC(=O)[C@H]1CC[C@H](CNC(=O)CN2CCN3CCN4CCN(CC2)CC(=O)O[CH2][Lu]([CH2]COC(=O)C3)[CH2]COC(=O)C4)CC1)C(=O)N1CCC[C@H]1B(O)O` [[^177Lu]-6952] registered a radiochemical purity remained under setting [1] above 90%.
